Data published in patent publication US9585897B2, “Anti-infective hydroxy-phenyl-benzoates and methods of use” (priority 2008, dated 2017).

How the values were obtained:
S. aureus [1] = type: cell-based, Staphylococcus aureus; details: for agr expression: dose-dependent, SAL at 25 or 50 μg/ml, DICL, 2.5 or 5 μg/ml
SH1000 (MSSA) = experiment: Gene expression quantified by realtime PCR, strain SH1000; details: early log phase (2-4 hr); 25 μg/ml
USA300 (MRSA) = experiment: Gene expression quantified by realtime PCR, strain USA300; details: early log phase (2-4 hr); 25 μg/ml
[2] = test system: SA strains SH1000 (MSSA), USA300 (MRSA); experiment: Antibiotic resistance phenotype (antibiotic MIC) in presence of salicylates; details: vs. both strains
[3] = test system: SA strains SH1000 (MSSA), USA300 (MRSA); experiment: Hemolysin phenotype compared to gene expression; details: in parallel to hla; 25 μg/ml
[4] = test system: SA strains SH1000 (MSSA), USA300 (MRSA); experiment: Gene expression quantified by realtime PCR, statements covering both SA strains; type: cell-based, Staphylococcus aureus
[5] = test system: S. aureus strains MSSA (6850), MRSA (COL), RN6390, SH1000, sigB operon deleted strains; experiment: Rabbit IE model with a range of S. aureus strains; type: in vivo
[6] = test system: S. aureus: ISP479C, Newman and COL; details: physiologically relevant drug concentrations; cited from earlier work
S. aureus α-toxin = type: cell-based, Staphylococcus aureus
[7] = test system: S. aureus (9 individual strains); experiment: S. aureus-to-fibrinogen or -fibronectin binding, solid-phase assays; type: cell-based, Staphylococcus aureus; details: pre-exposed to SAL 30 and 50 μg/ml; composite of 9 strains; dose-dependent
Text: Induction of endovascular infections is linked to the microbial binding to relevant vascular damage sites.
Fibrinogen and fibronectin play key roles as ligands for S. aureus binding to cellular docking sites (e.g., platelets and endothelial cells), as well as bridging molecules that facilitate these same interactions in which additional factors are operative (e.g., gC1qR-platelet or endothelial cell binding). Peerschke and Ghebrehiwet, Immunobiology.
Mean reduction (±SD) vs. control (100%). Data are composite results of laboratory S. aureus RN6390, COL, Newman, and ISP479C, and clinical MRSA 67-0, 6850, Duke 28, Duke 153, and Duke 237. […] Key: A P<0.005; B <P 0.001.

S. aureus [8] = experiment: Protease activity in S. aureus supernatants; type: cell-based, Staphylococcus aureus; details: in the presence of SAL
S. aureus [9] = experiment: Solid-phase plate assay, adherence to fibrin and platelet-fibrin matrices; type: cell-based, Staphylococcus aureus; details: organism pre-exposure to SAL in vitro
Method: A solid-phase plate assay was used to quantify the impact of SAL on the ability of S. aureus to adhere to fibrin and platelet-fibrin matrices. Platelet-rich (PRP) or platelet-free plasma (PFP) from control animals or those given a single-dose of aspirin iv (8 mg/kg) 5 hr prior to plasma isolation, were used to generate such matrices. […] Kupferwasser et al. Circulation. 1999 99:2791-7. These strains bound equally to control matrices and those constructed from aspirin-treated animals (data not shown).

[10] = test system: S. aureus FDA 486 and rsbU/V/W mutants; type: cell-based, Staphylococcus aureus
[11] = test system: S. aureus: ISP479C, Newman and COL; experiment: In vitro MICs of aspirin and SAL; type: cell-based, Staphylococcus aureus; details: 10-50 ug/ml up to 8 mg/ml
S. aureus [12] = experiment: sarA-repressible genes, lipase and protein A; details: in the presence of SAL
S. aureus IE = experiment: Rabbit model of S. aureus IE, aspirin, vancomycin or both for 2 d; type: in vivo
Method: In the rabbit model of S. aureus IE, two intravenous (iv) aspirin dose regimens designed to encompass those used in a previous aspirin-alone efficacy study (4 or 8 mg/kg/d) were employed. Animals received aspirin alone, vancomycin alone at a low dose regimen (7.5 mg/kg bid iv), or the two agents combined. Treatment was only for 2 d, based on the rationale that as the in vivo effects of vancomycin are traditionally slow in onset, maximal disclosure of any synergistic effect of the two compounds may emerge at this early time point.

[13] = Plasma prostacyclin levels after aspirin dosing
[14] = test system: three distinct S. aureus strains; experiment: NSAID effect on phenotypic or genotypic characteristics of S. aureus in vitro; type: cell-based, Staphylococcus aureus
Text: These findings also substantiate the concept that the anti-infective properties of aspirin likely occur by both platelet-dependent (aspirin) and platelet independent (SAL) mechanisms. Thus, the discovery of adjunctive use of SALs for MRSA infections are particularly relevant given: 1) long-term and extensive experience of aspirin for a variety of clinical indications; 2) its well-defined pharmacokinetics; and 3) its excellent adverse event and safety profiles.

strain RN6390 = experiment: Rabbit model of IE, aspirin alone 4 to 12 mg/kg/d for 4 d; type: in vivo
Method: To begin to assess the in vitro data sets for in vivo relevance, the rabbit model of IE as described by […] et al. Handbook of Animal Models of Infection. Academic Press, New York, N.Y., was utilized. Animals with pre-established IE caused by strain RN6390 were administered a wide range of iv aspirin dose regimens (4 to 12 mg/kg/d for 4 d therapy). This range affords human-equivalent sera levels in rabbits as described in Kupferwasser et al. Circulation. 1999 99:2791-7.

With `O=C(O)Cc1ccccc1Nc1c(Cl)cccc1Cl` [DICL, diclofenac] the agr expression (S. aureus [1]) was “reduced”.

In the case of `O=C(O)c1cc(-c2ccc(F)cc2F)ccc1O` [DIF, 5-(2,4-difluorophenyl)-2-hydroxy-benzoic acid], the “suppression of agr RNAIII, hla, and vraR” value (SH1000 (MSSA)) was over 20 fold, the “expression of agr RNAIII, hla, mprF, and sspA” value (USA300 (MRSA)) was “suppressed” and the “increases in ciprofloxacin MIC” value [2] was “prevented increases”. The Hemolysis phenotypes [3] was “suppressed”, the “regulatory and VF gene expression in MSSA and MRSA” value [4] was “significantly modulate” and the “effectiveness relative to SAL in suppressing virulence factor regulation or expression in MRSA” value ([4]; in vitro, MRSA including USA300) was “approximately 10 fold”. The “reduction of RNAIII (agr), hla, sspA compared with SAL” value ([4]; log phase) was “ten-fold higher reduction”.

With `O=C(O)c1cc(O)ccc1O` [GTA, gentisic acid] the gene expression ([4]; 25 μg/ml) was “did not alter”.

For `O=C(O)c1ccccc1O` [SAL, salicylic acid], the “in vivo efficacy compared with aspirin” value ([5]; same in vivo efficacy study carried out with SAL) is listed as “equivalent results to aspirin alone”, the “intrinsic bacteriostatic or bactericidal effects” value [6] is listed as “no evident intrinsic bacteriostatic or bactericidal effects” and the Hla protein production (S. aureus α-toxin) is listed as “dose dependent reduction”. For the same compound, the “thrombolysis and hemolysis by supernates” value (S. aureus α-toxin) was “reduced”, the α-toxin elaboration (S. aureus α-toxin) was “reduced” and the “fibrinogen and fibronectin binding” value [7] was “significant reductions”. The “protease activity in supernatants” value (S. aureus [8]) was “increased up to five-fold”, the “binding to fibrin and platelet-fibrin matrices” value (S. aureus [9]) was “Significant reductions” and the hla expression (S. aureus [1]) was “significantly reduced”. The “protein A gene expression (spa)” value (S. aureus [1]) was “increased”, the “sarA (P1) expression” value (S. aureus [1]) was “down-regulating” and the “sarC (P3) expression” value (S. aureus [1]) was “up-regulating”. The agr expression (S. aureus [1]) was “reduced”, the “sigB expression (as measured by increases in asp23 expression)” value [10] was “induces” and the “regulatory and VF gene expression in MSSA and MRSA” value [4] was “significantly modulate”. For the same compound, the “modulation of gene expression or hemolysis” value ([4]; 25 μg/ml) was “limited modulation”, the “growth inhibition (in vitro MIC testing)” value [11] was “no substantial growth inhibition” and the Lipase activity increase (S. aureus [12]) was about 2.6 fold. The “protein A expression increase” value (S. aureus [12]) was about 20%.

For `CC(=O)Oc1ccccc1C(=O)O` [aspirin, acetylsalicylic acid], the “effects of aspirin treatment across strains” value ([5]; RN6390 and rsbU-repaired variant SH1000) was “Equivalent salutary effects”, the impact of aspirin ([5]; strains deleted of their entire sigB operon) was “dampened” and the “bacterial counts in vegetations and kidneys” value (S. aureus IE; aspirin 8 mg/kg/d iv) was “significantly reduces”. The prostacyclin generation ([13]; 12 mg/kg aspirin dosing) was “prolonged suppression”, the “prolonged suppression of prostacyclin generation” value ([13]; 4 or 8 mg/kg aspirin) was “neither at 4 or 8 mg/kg” and the “changes in phenotypic or genotypic characteristics” value [14] was “neither aspirin (parent compound of SAL) nor indomethacin caused detectable changes”. The “beneficial effects of 8 mg/kg/d versus lower (4 mg/kg/d) or higher (12 mg/kg/d) dose regimens” value (strain RN6390; 8 mg/kg/d) was “significantly exceeded”, the “beneficial effects at increased dose” value (strain RN6390; aspirin 12 mg/kg/d) was “paradoxical loss” and the “vegetation weight, and vegetation and kidney bacterial densities” value (strain RN6390; iv aspirin 4 to 12 mg/kg/d for 4 d) was “consistent and dose-dependent reduction”. The “mass of echocardiographic detectable cardiac valve vegetations” value (strain RN6390; rabbit, in vivo) was “dramatic reductions”, the “modulation of gene expression or hemolysis” value ([4]; 25 μg/ml) was “limited modulation” and the “growth inhibition (in vitro MIC testing)” value [11] was “no substantial growth inhibition”.

In the case of `COc1ccc2c(c1)c(CC(=O)O)c(C)n2C(=O)c1ccc(Cl)cc1` [indomethacin], the “changes in phenotypic or genotypic characteristics” value [14] was “neither aspirin (parent compound of SAL) nor indomethacin caused detectable changes”.

In the case of `CN[C@H](CC(C)C)C(=O)N[C@H]1C(=O)N[C@@H](CC(N)=O)C(=O)N[C@H]2C(=O)N[C@H]3C(=O)N[C@H](C(=O)N[C@H](C(=O)O)c4cc(O)cc(O)c4-c4cc3ccc4O)[C@H](O)c3ccc(c(Cl)c3)Oc3cc2cc(c3O[C@@H]2O[C@H](CO)[C@@H](O)[C@H](O)[C@H]2O[C@H]2C[C@](C)(N)[C@H](O)[C@H](C)O2)Oc2ccc(cc2Cl)[C@H]1O` [vancomycin], the “bacterial counts in vegetations and kidneys” value (S. aureus IE; vancomycin 7.5 mg/kg bid iv) was “significantly reduces”.
